In ChEMBL document CHEMBL1777706, “Discovery of selective and orally available spiro-3-piperidyl ATP-competitive MK2 inhibitors” (Bioorg Med Chem Lett, 2011):
Activity calls are given as the source filed them. The rule behind the calls is not given here.

biological target: Mitogen-activated protein kinase 1 (Homo sapiens) (UniProt P28482); assay: Inhibition of ERK2 at 1 uM
Sequence (P28482 whole entry, looked up): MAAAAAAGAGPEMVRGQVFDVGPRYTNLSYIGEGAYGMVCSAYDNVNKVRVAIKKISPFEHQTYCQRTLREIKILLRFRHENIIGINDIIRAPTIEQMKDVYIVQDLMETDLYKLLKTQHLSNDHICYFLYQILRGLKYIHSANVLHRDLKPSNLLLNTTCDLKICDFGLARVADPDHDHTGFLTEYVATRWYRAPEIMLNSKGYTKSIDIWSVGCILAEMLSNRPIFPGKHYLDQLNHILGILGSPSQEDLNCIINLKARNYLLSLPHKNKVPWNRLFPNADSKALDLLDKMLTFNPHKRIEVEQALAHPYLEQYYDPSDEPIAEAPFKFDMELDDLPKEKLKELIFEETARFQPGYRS

| inhibition | Structure (SMILES) |
| --- | --- |
| > 80% | CCC(=O)Nc1ccc(-c2nccc(-c3cc4c([nH]3)C3(CCNCC3)CNC4=O)n2)cn1 |
| > 80% | O=C1NCC2(CCNCC2)c2[nH]c(-c3ccnc(-c4cccnc4)n3)cc21 |
| > 80% | Nc1ncc(-c2nccc(-c3cc4c([nH]3)C3(CCNCC3)CNC4=O)n2)cn1 |
| > 80% | O=C1NCC2(CCNCC2)c2[nH]c(-c3ccnc(-c4cnc(NC5CCCC5)nc4)n3)cc21 |
| > 80% | CC(C)(C)c1ccc(-c2nccc(-c3cc4c([nH]3)C3(CCNCC3)CNC4=O)n2)cc1 |
| > 80% | O=C1NCC2(CCNCC2)c2[nH]c(-c3ccnc(-c4cccc(F)c4)n3)cc21 |

biological target: Serine/threonine-protein kinase Chk2 (Homo sapiens) (UniProt O96017); assay: Inhibition of CHK2 at 1 uM
Sequence (O96017 whole entry): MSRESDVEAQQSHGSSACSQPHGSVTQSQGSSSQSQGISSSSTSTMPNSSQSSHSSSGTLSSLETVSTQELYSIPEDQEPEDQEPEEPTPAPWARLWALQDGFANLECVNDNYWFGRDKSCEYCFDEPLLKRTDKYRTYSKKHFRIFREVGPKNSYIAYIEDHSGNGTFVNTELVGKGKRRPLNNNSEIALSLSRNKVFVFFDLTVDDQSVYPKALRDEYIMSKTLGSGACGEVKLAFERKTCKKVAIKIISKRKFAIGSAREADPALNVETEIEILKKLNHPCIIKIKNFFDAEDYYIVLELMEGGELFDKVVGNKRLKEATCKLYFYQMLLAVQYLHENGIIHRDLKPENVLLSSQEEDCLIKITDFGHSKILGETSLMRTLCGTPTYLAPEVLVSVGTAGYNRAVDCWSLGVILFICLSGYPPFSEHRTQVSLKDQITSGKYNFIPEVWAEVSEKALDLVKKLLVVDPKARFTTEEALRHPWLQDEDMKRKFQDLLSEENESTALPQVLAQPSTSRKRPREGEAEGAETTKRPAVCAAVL

| inhibition | Structure (SMILES) |
| --- | --- |
| > 80% | O=C1NCCc2[nH]c(-c3ccnc(-c4ccccc4F)c3)cc21 |
| > 80% | CCC(=O)Nc1ccc(-c2nccc(-c3cc4c([nH]3)C3(CCNCC3)CNC4=O)n2)cn1 |
| > 80% | O=C1NCC2(CCNCC2)c2[nH]c(-c3ccnc(-c4cccnc4)n3)cc21 |
| > 80% | Nc1ncc(-c2nccc(-c3cc4c([nH]3)C3(CCNCC3)CNC4=O)n2)cn1 |
| > 80% | O=C1NCC2(CCNCC2)c2[nH]c(-c3ccnc(-c4cnc(NC5CCCC5)nc4)n3)cc21 |
| > 80% | CC(C)(C)c1ccc(-c2nccc(-c3cc4c([nH]3)C3(CCNCC3)CNC4=O)n2)cc1 |
| > 80% | O=C1NCC2(CCNCC2)c2[nH]c(-c3ccnc(-c4cccc(F)c4)n3)cc21 |

biological target: MAP kinase-activated protein kinase 2 (Homo sapiens, UniProt P49137); assay: Inhibition of MK2 pretreated for 30 mins before fluorescein labeled substrate peptide addition measured after 2 hrs by IMAP assay
Sequence (P49137 whole entry): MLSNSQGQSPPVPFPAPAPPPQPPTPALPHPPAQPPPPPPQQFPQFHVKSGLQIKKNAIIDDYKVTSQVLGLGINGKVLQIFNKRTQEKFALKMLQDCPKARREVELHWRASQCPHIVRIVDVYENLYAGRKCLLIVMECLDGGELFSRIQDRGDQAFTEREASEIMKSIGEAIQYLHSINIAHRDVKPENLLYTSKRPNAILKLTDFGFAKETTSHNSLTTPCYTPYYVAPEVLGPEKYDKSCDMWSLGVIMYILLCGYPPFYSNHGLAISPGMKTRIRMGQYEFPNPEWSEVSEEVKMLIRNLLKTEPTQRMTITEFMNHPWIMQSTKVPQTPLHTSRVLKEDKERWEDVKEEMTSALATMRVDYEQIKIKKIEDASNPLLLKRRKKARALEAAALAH

| EC50 | Structure (SMILES) |
| --- | --- |
| 6.2 nM | CCC(=O)Nc1ccc(-c2nccc(-c3cc4c([nH]3)C3(CCNCC3)CNC4=O)n2)cn1 |
| 1.1 nM | O=C1NCC2(CCNCC2)c2[nH]c(-c3ccnc(-c4cccnc4)n3)cc21 |
| 5 nM | Nc1ncc(-c2nccc(-c3cc4c([nH]3)C3(CCNCC3)CNC4=O)n2)cn1 |
| 4.9 nM | O=C1NCC2(CCNCC2)c2[nH]c(-c3ccnc(-c4cnc(NC5CCCC5)nc4)n3)cc21 |
| 6.2 nM | CC(C)(C)c1ccc(-c2nccc(-c3cc4c([nH]3)C3(CCNCC3)CNC4=O)n2)cc1 |
| 8.3 nM | O=C1NCC2(CCNCC2)c2[nH]c(-c3ccnc(-c4cccc(F)c4)n3)cc21 |

biological target: T1, Serine/threonine-protein kinase 17A (Homo sapiens) (UniProt Q9UEE5); assay: Inhibition of DRAK1 at 1 uM
T1 sequence (whole entry): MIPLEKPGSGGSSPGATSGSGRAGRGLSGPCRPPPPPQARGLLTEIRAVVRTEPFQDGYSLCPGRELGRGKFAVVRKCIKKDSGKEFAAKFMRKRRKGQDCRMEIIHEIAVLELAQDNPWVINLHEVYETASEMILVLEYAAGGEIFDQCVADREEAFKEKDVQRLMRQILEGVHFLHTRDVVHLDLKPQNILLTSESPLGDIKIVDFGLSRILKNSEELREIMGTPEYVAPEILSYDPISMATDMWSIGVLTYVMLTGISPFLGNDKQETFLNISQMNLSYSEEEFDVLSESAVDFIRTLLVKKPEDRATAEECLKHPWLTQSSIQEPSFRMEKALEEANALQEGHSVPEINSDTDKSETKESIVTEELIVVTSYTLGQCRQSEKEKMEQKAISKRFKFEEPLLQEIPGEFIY

| inhibition | Structure (SMILES) |
| --- | --- |
| > 80% | O=C1NCCc2[nH]c(-c3ccnc(-c4ccccc4F)c3)cc21 |
| > 80% | CCC(=O)Nc1ccc(-c2nccc(-c3cc4c([nH]3)C3(CCNCC3)CNC4=O)n2)cn1 |
| > 80% | O=C1NCC2(CCNCC2)c2[nH]c(-c3ccnc(-c4cccnc4)n3)cc21 |
| > 80% | Nc1ncc(-c2nccc(-c3cc4c([nH]3)C3(CCNCC3)CNC4=O)n2)cn1 |
| > 80% | O=C1NCC2(CCNCC2)c2[nH]c(-c3ccnc(-c4cnc(NC5CCCC5)nc4)n3)cc21 |
| > 80% | CC(C)(C)c1ccc(-c2nccc(-c3cc4c([nH]3)C3(CCNCC3)CNC4=O)n2)cc1 |
| > 80% | O=C1NCC2(CCNCC2)c2[nH]c(-c3ccnc(-c4cccc(F)c4)n3)cc21 |

tested on: THP-1; assay: Antiinflammatory activity in human THP1 cells assessed as inhibition of LPS-induced TNFalpha production pretreated 30 mins before LPS challenge measured after 4 hrs; format: functional, cell-based

| EC50 | Structure (SMILES) |
| --- | --- |
| 9100 nM | O=C1NCCc2[nH]c(-c3ccnc(-c4ccccc4F)c3)cc21 |
| > 10000 nM | CCC(=O)Nc1ccc(-c2nccc(-c3cc4c([nH]3)C3(CCNCC3)CNC4=O)n2)cn1 |
| > 10000 nM | O=C1NCC2(CCNCC2)c2[nH]c(-c3ccnc(-c4cccnc4)n3)cc21 |
| > 10000 nM | Nc1ncc(-c2nccc(-c3cc4c([nH]3)C3(CCNCC3)CNC4=O)n2)cn1 |
| 2600 nM | O=C1NCC2(CCNCC2)c2[nH]c(-c3ccnc(-c4cnc(NC5CCCC5)nc4)n3)cc21 |
| 5900 nM | CC(C)(C)c1ccc(-c2nccc(-c3cc4c([nH]3)C3(CCNCC3)CNC4=O)n2)cc1 |
| 1400 nM | O=C1NCC2(CCNCC2)c2[nH]c(-c3ccnc(-c4cccc(F)c4)n3)cc21 |

biological target: Serine/threonine-protein kinase pim-1 (Homo sapiens) (UniProt P11309); assay: Inhibition of PIM1 at 1 uM
Sequence (P11309 whole entry, looked up): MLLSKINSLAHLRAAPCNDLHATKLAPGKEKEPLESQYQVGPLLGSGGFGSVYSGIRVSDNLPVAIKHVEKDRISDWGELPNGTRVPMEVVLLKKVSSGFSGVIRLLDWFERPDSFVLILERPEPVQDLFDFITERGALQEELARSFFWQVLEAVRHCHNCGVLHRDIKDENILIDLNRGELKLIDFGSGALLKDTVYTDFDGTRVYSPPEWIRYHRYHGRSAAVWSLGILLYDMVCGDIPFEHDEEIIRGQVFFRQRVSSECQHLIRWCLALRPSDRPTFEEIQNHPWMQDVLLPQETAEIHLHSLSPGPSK

| inhibition | Structure (SMILES) |
| --- | --- |
| > 80% | O=C1NCCc2[nH]c(-c3ccnc(-c4ccccc4F)c3)cc21 |
| > 80% | CCC(=O)Nc1ccc(-c2nccc(-c3cc4c([nH]3)C3(CCNCC3)CNC4=O)n2)cn1 |
| > 80% | O=C1NCC2(CCNCC2)c2[nH]c(-c3ccnc(-c4cccnc4)n3)cc21 |
| > 80% | Nc1ncc(-c2nccc(-c3cc4c([nH]3)C3(CCNCC3)CNC4=O)n2)cn1 |
| > 80% | O=C1NCC2(CCNCC2)c2[nH]c(-c3ccnc(-c4cnc(NC5CCCC5)nc4)n3)cc21 |
| > 80% | CC(C)(C)c1ccc(-c2nccc(-c3cc4c([nH]3)C3(CCNCC3)CNC4=O)n2)cc1 |
| > 80% | O=C1NCC2(CCNCC2)c2[nH]c(-c3ccnc(-c4cccc(F)c4)n3)cc21 |

biological target: Mitogen-activated protein kinase 3 (Homo sapiens) (UniProt P27361); assay: Inhibition of ERK1 at 1 uM
Sequence (P27361 whole entry): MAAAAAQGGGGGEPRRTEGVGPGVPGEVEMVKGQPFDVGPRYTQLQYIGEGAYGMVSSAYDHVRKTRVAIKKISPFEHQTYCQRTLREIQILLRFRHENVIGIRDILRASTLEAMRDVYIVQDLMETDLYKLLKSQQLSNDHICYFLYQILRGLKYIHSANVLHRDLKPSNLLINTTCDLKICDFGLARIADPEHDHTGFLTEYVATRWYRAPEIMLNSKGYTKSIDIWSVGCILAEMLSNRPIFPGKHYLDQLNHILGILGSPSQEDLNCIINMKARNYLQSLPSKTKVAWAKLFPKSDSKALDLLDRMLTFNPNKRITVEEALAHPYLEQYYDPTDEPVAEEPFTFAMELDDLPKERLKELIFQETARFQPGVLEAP

| inhibition | Structure (SMILES) |
| --- | --- |
| > 80% | CCC(=O)Nc1ccc(-c2nccc(-c3cc4c([nH]3)C3(CCNCC3)CNC4=O)n2)cn1 |
| > 80% | O=C1NCC2(CCNCC2)c2[nH]c(-c3ccnc(-c4cccnc4)n3)cc21 |
| > 80% | Nc1ncc(-c2nccc(-c3cc4c([nH]3)C3(CCNCC3)CNC4=O)n2)cn1 |
| > 80% | O=C1NCC2(CCNCC2)c2[nH]c(-c3ccnc(-c4cnc(NC5CCCC5)nc4)n3)cc21 |
| > 80% | CC(C)(C)c1ccc(-c2nccc(-c3cc4c([nH]3)C3(CCNCC3)CNC4=O)n2)cc1 |
| > 80% | O=C1NCC2(CCNCC2)c2[nH]c(-c3ccnc(-c4cccc(F)c4)n3)cc21 |

biological target: Serine/threonine-protein kinase pim-3 (Homo sapiens) (UniProt Q86V86); assay: Inhibition of PIM3 at 1 uM

| inhibition | Structure (SMILES) |
| --- | --- |
| > 80% | O=C1NCCc2[nH]c(-c3ccnc(-c4ccccc4F)c3)cc21 |
| > 80% | CCC(=O)Nc1ccc(-c2nccc(-c3cc4c([nH]3)C3(CCNCC3)CNC4=O)n2)cn1 |
| > 80% | O=C1NCC2(CCNCC2)c2[nH]c(-c3ccnc(-c4cccnc4)n3)cc21 |
| > 80% | Nc1ncc(-c2nccc(-c3cc4c([nH]3)C3(CCNCC3)CNC4=O)n2)cn1 |
| > 80% | O=C1NCC2(CCNCC2)c2[nH]c(-c3ccnc(-c4cnc(NC5CCCC5)nc4)n3)cc21 |
| > 80% | CC(C)(C)c1ccc(-c2nccc(-c3cc4c([nH]3)C3(CCNCC3)CNC4=O)n2)cc1 |
| > 80% | O=C1NCC2(CCNCC2)c2[nH]c(-c3ccnc(-c4cccc(F)c4)n3)cc21 |

tested on: not listed separately; assay: Inhibition of p38

| inhibition | Structure (SMILES) |
| --- | --- |
| inactive | O=C1NCCc2[nH]c(-c3ccnc(-c4ccccc4F)c3)cc21 |
| inactive | CCC(=O)Nc1ccc(-c2nccc(-c3cc4c([nH]3)C3(CCNCC3)CNC4=O)n2)cn1 |
| inactive | O=C1NCC2(CCNCC2)c2[nH]c(-c3ccnc(-c4cccnc4)n3)cc21 |
| inactive | Nc1ncc(-c2nccc(-c3cc4c([nH]3)C3(CCNCC3)CNC4=O)n2)cn1 |
| inactive | O=C1NCC2(CCNCC2)c2[nH]c(-c3ccnc(-c4cnc(NC5CCCC5)nc4)n3)cc21 |
| inactive | CC(C)(C)c1ccc(-c2nccc(-c3cc4c([nH]3)C3(CCNCC3)CNC4=O)n2)cc1 |
| inactive | O=C1NCC2(CCNCC2)c2[nH]c(-c3ccnc(-c4cccc(F)c4)n3)cc21 |
